From patent US8758474B2, “Urea fertilizer containing central volatilization inhibitor particles to reduce release of ammonia and processes for making same” (NFT Industries, LLC, priority 2010, dated 2014)

System: enzymes in the soil
Test: Ammonia volatilization test (fertilizer applied to the surface of moist soil, ammonia captured in sulfuric acid and titrated)
Settings: cumulative, percent of total starting nitrogen
Excerpt: Nitrogen lost, as ammonia, after soil application occurs over a long time period. The present volatilization test was designed to simulate and quantify processes in the soil. The volatilization test apparatus and procedure utilized to evaluate the test product samples described in above Table 1 is summarized as follows.
Procedure for Measurement of Ammonia
The test was designed to determine the volatility of a fertilizer product when applied to the surface of the soil. The baseline, standard that used was one gram of urea. Each sample was placed in a sample flask which contained a pre-weighed amount of soil and water. The same source of soil was used in all testing. Humidified air was then passed over the sample to carry any ammonia which had volatilized by the enzymes in the soil, to a receiving flask. The receiving flask contained sulfuric acid which captured the ammonia. The receiving flask was then titrated to determine the amount of ammonia volatilized from each sample.
Mixed Methyl Red—Methylene Blue Indicator (150 mL): • Dissolve 0.2 g of methyl red in 100 mL of ethyl alcohol (70-95%). Dissolve 0.1 g methylene blue in 50 mL of ethyl alcohol (70-95%). Mix together. • Indicator was good for 30 days. Testing Apparatus: Manifold: • a. A manifold was constructed of ½ inch cpvc (chlorinated polyvinyl chloride). • b. The manifold has 22 ports with a needle valve for air flow adjustment. • c. The tubing from the manifold to the sample flask was connected to a 1/16 inch hose barb on the needle valve.
2. Air Supply: • a. The air was supplied by an air compressor with a regulator to control the pressure to the manifold. • b. The air goes through a rotameter with a control knob to adjust the flow to the manifold (A minimum of 70 volumes of the head space is in each sample flask during each sampling interval, often much higher. Head space refers to the air volume above the soil.). • c. The air from the rotameter goes through a bubbler containing 25% sulfuric acid solution. After the sulfuric acid bubbler is a knock out chamber to prevent any sulfuric acid mist from going further. • d. The air then goes to a water bubbler to hydrate the air before going through another knock out chamber before entering the manifold.
3. Sample Flask • a. The sample flask is a 250 mL Erlenmeyer flask. The tubing from the manifold is connected to the flask by a barb fitting in a rubber stopper. • b. Each sample flask contained 48 grams of soil (dried and sieved through a 12 mesh screen), 12 grams of water, and the equivalent of one gram of urea. The materials were added to the flasks in the order list to ensure that the sample was added to moist soil (20-25%).
4. Receiving Flask • a. The receiving flask is a 125 mL Erlenmeyer flask. Tubing from the stopper on the sample flask is connected to a glass sparger passing through a stopper to the receiving flask. • b. Each receiving flask contains 50 mL of 0.5N Sulfuric Acid. • c. The tip of the glass sparger is below the level of the acid to allow the air to bubble through the acid and capture any ammonia present. • d. The receiving flask is removed and replaced with flask containing fresh solution at the intervals of 3, 7 and 10 days.
5. Measurement of Ammonia • a. The contents of each receiving flask removed at the intervals of 3, 7 and 10 days were tested for ammonia according to the above described Procedure for Measurement of Ammonia. The first ten days are most critical and are sufficient to determine reliable comparative results. • b. […] Ammonia Volatilization Test Results for Products in Table 2

SMILES	% Ammonia Released (Table 2 series, Day 0) [%]	% Ammonia Released (Table 2 series, Day 3) [%]	% Ammonia Released (Table 2 series, Day 7) [%]	% Ammonia Released (Table 2 series, Day 10) [%]	% Ammonia Released (Table 3 series, Day 0) [%]	% Ammonia Released (Table 3 series, Day 3) [%]	% Ammonia Released (Table 3 series, Day 7) [%]	% Ammonia Released (Table 3 series, Day 10) [%]	% Ammonia Released (Table 4 series, Day 0) [%]	% Ammonia Released (Table 4 series, Day 3) [%]	% Ammonia Released (Table 4 series, Day 7) [%]	% Ammonia Released (Table 4 series, Day 10) [%]	% Ammonia Released (Table 5 series, Day 0) [%]	% Ammonia Released (Table 5 series, Day 3) [%]	% Ammonia Released (Table 5 series, Day 7) [%]	% Ammonia Released (Table 5 series, Day 10) [%]
NC(N)=O [Urea]	0	0.23	72.29	82.37	0	1.09	38.83	81.33	0	27.41	88.77	90.81	0	0.05	40.35	65.11
N.O=P(O)(O)O [MAP, monoammonium phosphate]									0	0.74	1.61	2.09				
